Experimental data from patent US11634393B2, “Substituted tolyl fungicides” (FMC CORPORATION, priority 2018, dated 2023).

Tests used:
[1] = tested on: Puccinia recondita f. sp. tritici; test: Test B: wheat leaf rust, spray on wheat seedlings, disease control rating; type: in vivo; details: 100 = 100% disease control, 0 = no disease control relative to the controls; for pest or weed control at 10 ppm / Test B disease control rating: Rate 10 ppm
Description: (§1) General protocol for preparing test suspensions for Tests A-F: the test compounds were first dissolved in acetone in an amount equal to 3% of the final volume and then suspended at the desired concentration (in ppm) in acetone and purified water (50/50 mix by volume) containing 250 ppm of the surfactant PEG400 (polyhydric alcohol esters). The resulting test suspensions were then used in Tests A-F.
The test solution was sprayed to the point of run-off on wheat seedlings. The following day the seedlings were inoculated with a spore suspension of Puccinia recondita f. sp. tritici (the causal agent of wheat leaf rust) and incubated in a saturated atmosphere at 20° C. for 24 h, and then moved to a growth chamber at 20° C. for 7 days, after which time disease ratings were made.
(§2) A rating of 100 indicates 100% disease control and a rating of 0 indicates no disease control (relative to the controls). A dash (-) indicates the compound was not tested.

Phakopsora pachyrhizi = test: Test D: Asian soybean rust, spray on soybean seedlings, disease control rating; type: in vivo; details: 100 = 100% disease control, 0 = no disease control relative to the controls; for pest or weed control at 10 ppm / Test D disease control rating: Rate 10 ppm
Description: as §1
The test solution was sprayed to the point of run-off on soybean seedlings. The following day the seedlings were inoculated with a spore suspension of Phakopsora pachyrhizi (the causal agent of Asian soybean rust) and incubated in a saturated atmosphere at 22° C. for 24 h and then moved to a growth chamber at 22° C. for 8 days, after which time visual disease ratings were made.
as §2

COC(=O)NCc1cc(-c2cn(-c3c(F)cc(C)cc3F)nn2)ccc1C [Compound 119]
melting point: 143 to 147 °C | pest or weed control at 10 ppm ([1]; Puccinia recondita, 192 h): 100% | pest or weed control at 10 ppm (Phakopsora pachyrhizi; Phakopsora pachyrhizi, 216 h): 0%

COC(=O)NCc1cc(-c2cnn(-c3c(F)cc(C(F)(F)F)cc3F)n2)ccc1C [Compound 141]
melting point: 138 to 142 °C | pest or weed control at 10 ppm ([1]; Puccinia recondita, 192 h): 99% | pest or weed control at 10 ppm (Phakopsora pachyrhizi; Phakopsora pachyrhizi, 216 h): 100%

COC(=O)NCc1cc(-c2ccn(-c3c(F)cc(OC4CCC4)cc3F)n2)ccc1C [Compound 13, methyl N-[[5-[1-[4-(cyclobutyloxy)-2,6-difluorophenyl]-1H-pyrazol-3-yl]-2-methylphenyl]methyl]carbamate]
melting point: 126 to 128 °C | pest or weed control at 10 ppm ([1]; Puccinia recondita, 192 h): 100% | pest or weed control at 10 ppm (Phakopsora pachyrhizi; Phakopsora pachyrhizi, 216 h): 100%

COC(=O)NCc1cc(-c2ncn(-c3c(F)cc(N)cc3F)n2)ccc1C [Compound 106]
melting point: 136 to 140 °C

COC(=O)NCc1cc(-c2cnn(-c3c(F)cc(Br)cc3F)n2)ccc1C [Compound 114]
melting point: 136 to 140 °C | pest or weed control at 10 ppm ([1]; Puccinia recondita, 192 h): 100% | pest or weed control at 10 ppm (Phakopsora pachyrhizi; Phakopsora pachyrhizi, 216 h): 100%

COC(=O)NCc1cc(-c2cnn(-c3c(F)cc(C)cc3F)n2)ccc1C [Compound 111]
melting point: 117 to 121 °C | pest or weed control at 10 ppm ([1]; Puccinia recondita, 192 h): 99% | pest or weed control at 10 ppm (Phakopsora pachyrhizi; Phakopsora pachyrhizi, 216 h): 100%

COC(=O)NCc1cc(-c2cc(C)n(-c3c(Cl)cccc3Cl)n2)ccc1C [Compound 101]
melting point: 146 to 150 °C | pest or weed control at 10 ppm ([1]; Puccinia recondita, 192 h): 0% | pest or weed control at 10 ppm (Phakopsora pachyrhizi; Phakopsora pachyrhizi, 216 h): 0%

COC(=O)NCc1cc(-c2cc(C)n(-c3c(F)cccc3F)n2)ccc1C [Compound 100]
melting point: 125 to 129 °C | pest or weed control at 10 ppm ([1]; Puccinia recondita, 192 h): 0% | pest or weed control at 10 ppm (Phakopsora pachyrhizi; Phakopsora pachyrhizi, 216 h): 0%

COC(=O)NCc1cc(-c2cn(-c3c(F)cc(OC)cc3F)nn2)ccc1C [Compound 130]
melting point: 146 to 150 °C | pest or weed control at 10 ppm ([1]; Puccinia recondita, 192 h): 68% | pest or weed control at 10 ppm (Phakopsora pachyrhizi; Phakopsora pachyrhizi, 216 h): 0%

COC(=O)NCc1cc(-c2cnn(-c3c(F)cc(C4CC4)cc3F)n2)ccc1C [Compound 113]
melting point: 107 to 111 °C | pest or weed control at 10 ppm ([1]; Puccinia recondita, 192 h): 100% | pest or weed control at 10 ppm (Phakopsora pachyrhizi; Phakopsora pachyrhizi, 216 h): 100%

COC(=O)NCc1cc(-c2cn(-c3c(Br)cc(OC)cc3[N+](=O)[O-])nn2)ccc1C [Compound 129]
melting point: 158 to 162 °C | pest or weed control at 10 ppm ([1]; Puccinia recondita, 192 h): 0% | pest or weed control at 10 ppm (Phakopsora pachyrhizi; Phakopsora pachyrhizi, 216 h): 0%

COC(=O)NCc1cc(-c2cn(-c3c(F)cc(Br)cc3F)nn2)ccc1C [Compound 126]
melting point: 160 to 164 °C | pest or weed control at 10 ppm ([1]; Puccinia recondita, 192 h): 57% | pest or weed control at 10 ppm (Phakopsora pachyrhizi; Phakopsora pachyrhizi, 216 h): 0%

COC(=O)NCc1cc(-c2cnn(-c3c(F)cc(I)cc3F)n2)ccc1C [Compound 116]
melting point: 154 to 158 °C | pest or weed control at 10 ppm ([1]; Puccinia recondita, 192 h): 100% | pest or weed control at 10 ppm (Phakopsora pachyrhizi; Phakopsora pachyrhizi, 216 h): 100%

COC(=O)NCc1cc(-c2ccn(-c3c(F)cccc3F)n2)ccc1C [Compound 4, methyl N-[[5-[1-(2,6-difluorophenyl)-1H-pyrazol-3-yl]-2-methylphenyl]-methyl]carbamate]
melting point: 142 to 143 °C | pest or weed control at 10 ppm ([1]; Puccinia recondita, 192 h): 90% | pest or weed control at 10 ppm (Phakopsora pachyrhizi; Phakopsora pachyrhizi, 216 h): 100%

COC(=O)NCc1cc(-c2cn(-c3c(Cl)cc(OC)cc3Cl)nn2)ccc1C [Compound 123]
melting point: 148 to 152 °C | pest or weed control at 10 ppm ([1]; Puccinia recondita, 192 h): 0% | pest or weed control at 10 ppm (Phakopsora pachyrhizi; Phakopsora pachyrhizi, 216 h): 0%

COC(=O)NCc1cc(-c2cnn(-c3c(F)cc(C(C)C)cc3F)n2)ccc1C [Compound 108, methyl N-[[5-[2-[2,6-difluoro-4-(1-methylethyl)phenyl]-2H-1,2,3-triazol-4-yl]-2-methylphenyl]methyl]carbamate]
melting point: 102 to 106 °C | pest or weed control at 2 ppm ([1]; Puccinia recondita, 192 h, Rate 2 ppm): 100% | pest or weed control at 2 ppm (Phakopsora pachyrhizi; Phakopsora pachyrhizi, 216 h, Rate 2 ppm): 100%

COC(=O)NCc1cc(-c2cn(-c3c(Br)cc(OC)cc3Br)nn2)ccc1C [Compound 128]
melting point: 167 to 171 °C | pest or weed control at 10 ppm ([1]; Puccinia recondita, 192 h): 0% | pest or weed control at 10 ppm (Phakopsora pachyrhizi; Phakopsora pachyrhizi, 216 h): 0%

COC(=O)NCc1cc(-c2cn(-c3c(F)cc(Cl)cc3F)nn2)ccc1C [Compound 121, methyl N-[[5-[1-(4-chloro-2,6-difluorophenyl)-1H-1,2,3-triazol-4-yl]-2-methylphenyl]methyl]carbamate]
melting point: 159 to 163 °C | pest or weed control at 10 ppm ([1]; Puccinia recondita, 192 h): 68% | pest or weed control at 10 ppm (Phakopsora pachyrhizi; Phakopsora pachyrhizi, 216 h): 0%

COC(=O)NCc1cc(-c2ccn(-c3c(F)cc(C)cc3F)n2)ccc1C [Compound 30]
melting point: 130 to 131 °C | pest or weed control at 10 ppm ([1]; Puccinia recondita, 192 h): 98% | pest or weed control at 10 ppm (Phakopsora pachyrhizi; Phakopsora pachyrhizi, 216 h): 100%

COC(=O)NCc1cc(-c2cc(C)n(-c3c(F)cc(OC)cc3F)n2)ccc1C [Compound 102]
melting point: 128 to 132 °C | pest or weed control at 10 ppm ([1]; Puccinia recondita, 192 h): 0% | pest or weed control at 10 ppm (Phakopsora pachyrhizi; Phakopsora pachyrhizi, 216 h): 0%

CON=C(C)c1cc(F)c(-n2ccc(-c3ccc(C)c(CNC(=O)OC)c3)n2)c(F)c1 [Compound 99]
Test B disease control rating [1]: 100% | Test D disease control rating (Phakopsora pachyrhizi): 100%

CON=C(C)c1cc(F)c(-n2ccc(-c3ccc(C)c(CNC(=O)OC)c3)n2)c(F)c1 [Compound 83, methyl N-[[5-[1-[2,6-difluoro-4-[1-(methoxyimino)ethyl]phenyl]-1H-pyrazol-3-yl]-2-methylphenyl]methyl]carbamate]
pest or weed control at 10 ppm ([1]; Puccinia recondita, 192 h): 100% | pest or weed control at 10 ppm (Phakopsora pachyrhizi; Phakopsora pachyrhizi, 216 h): 100%

COC(=O)NCc1cc(-c2ccn(-c3c(Cl)cccc3I)n2)ccc1C [Compound 59]
pest or weed control at 10 ppm ([1]; Puccinia recondita, 192 h): 45% | pest or weed control at 10 ppm (Phakopsora pachyrhizi; Phakopsora pachyrhizi, 216 h): 87%

COC(=O)NCc1cc(-c2ccn(-c3c(Cl)cc(Br)cc3Cl)n2)ccc1C [Compound 56]
pest or weed control at 10 ppm ([1]; Puccinia recondita, 192 h): 80% | pest or weed control at 10 ppm (Phakopsora pachyrhizi; Phakopsora pachyrhizi, 216 h): 100%

COC(=O)NCc1cc(-c2ccn(-c3c(F)cc(C(C)=O)cc3F)n2)ccc1C [Compound 68, methyl N-[[5-[1-(4-acetyl-2,6-difluorophenyl)-1H-pyrazol-3-yl]-2-methylphenyl]methyl]carbamate]
pest or weed control at 10 ppm ([1]; Puccinia recondita, 192 h): 74% | pest or weed control at 10 ppm (Phakopsora pachyrhizi; Phakopsora pachyrhizi, 216 h): 71%

COC(=O)NCc1cc(-c2cn(-c3c(F)cc(I)cc3F)nn2)ccc1C [Compound 125]
melting point: 166 to 170 °C | pest or weed control at 10 ppm ([1]; Puccinia recondita, 192 h): 68% | pest or weed control at 10 ppm (Phakopsora pachyrhizi; Phakopsora pachyrhizi, 216 h): 0%

COC(=O)NCc1cc(-c2ccn(-c3c(C)cc(Br)cc3C)n2)ccc1C [Compound 48]
pest or weed control at 10 ppm ([1]; Puccinia recondita, 192 h): 68% | pest or weed control at 10 ppm (Phakopsora pachyrhizi; Phakopsora pachyrhizi, 216 h): 99%

COC(=O)NCc1cc(-c2cnn(-c3c(F)cccc3F)n2)ccc1C [Compound 112]
melting point: 122 to 126 °C

COC(=O)NCc1cc(-c2cn(-c3c(F)cc(N)cc3F)nn2)ccc1C [Compound 131, methyl N-[[5-[1-(4-amino-2,6-difluorophenyl)-1H-1,2,3-triazol-4-yl]-2-methylphenyl]methyl]carbamate]
melting point: 194 to 198 °C

CNc1cc(F)c(-n2ccc(-c3ccc(C)c(CNC(=O)OC)c3)n2)c(F)c1 [Compound 36]
pest or weed control at 10 ppm ([1]; Puccinia recondita, 192 h): 68% | pest or weed control at 10 ppm (Phakopsora pachyrhizi; Phakopsora pachyrhizi, 216 h): 100%

COC(=O)NCc1cc(-c2ccn(-c3c(F)cc(OC4CC4)cc3F)n2)ccc1C [Compound 66, methyl N-[[5-[1-[4-(cyclopropyloxy)-2,6-difluorophenyl]-1H-pyrazol-3-yl]-2-methylphenyl]methyl]carbamate]
melting point: 124 to 128 °C | pest or weed control at 10 ppm ([1]; Puccinia recondita, 192 h): 100% | pest or weed control at 10 ppm (Phakopsora pachyrhizi; Phakopsora pachyrhizi, 216 h): 100%

COC(=O)NCc1cc(-c2ncn(-c3c(F)cc(Br)cc3F)n2)ccc1C [Compound 104]
melting point: 175 to 179 °C | pest or weed control at 10 ppm ([1]; Puccinia recondita, 192 h): 100% | pest or weed control at 10 ppm (Phakopsora pachyrhizi; Phakopsora pachyrhizi, 216 h): 90%

COC(=O)NCc1cc(-c2ccn(-c3c(F)cc(C4OCCO4)cc3F)n2)ccc1C [Compound 133]
pest or weed control at 10 ppm ([1]; Puccinia recondita, 192 h): 99% | pest or weed control at 10 ppm (Phakopsora pachyrhizi; Phakopsora pachyrhizi, 216 h): 100%

COC(=O)NCc1cc(-c2ncn(-c3c(F)cc(C(F)(F)F)cc3F)n2)ccc1C [Compound 103]
melting point: 168 to 172 °C | pest or weed control at 10 ppm ([1]; Puccinia recondita, 192 h): 100% | pest or weed control at 10 ppm (Phakopsora pachyrhizi; Phakopsora pachyrhizi, 216 h): 86%

COC(=O)NCc1cc(-c2ccn(-c3c(F)cc(C=O)cc3F)n2)ccc1C [Compound 67, methyl N-[[5-[1-(2,6-difluoro-4-formylphenyl)-1H-pyrazol-3-yl]-2-methylphenyl]methyl]carbamate]
pest or weed control at 10 ppm ([1]; Puccinia recondita, 192 h): 0% | pest or weed control at 10 ppm (Phakopsora pachyrhizi; Phakopsora pachyrhizi, 216 h): 12%

COC(=O)NCc1cc(-c2ccn(-c3c(F)cc(SC)cc3SC)n2)ccc1C [Compound 28]
pest or weed control at 10 ppm ([1]; Puccinia recondita, 192 h): 0% | pest or weed control at 10 ppm (Phakopsora pachyrhizi; Phakopsora pachyrhizi, 216 h): 100%

COC(=O)NCc1cc(-c2ccn(-c3c(F)cc(OC(C)=O)cc3F)n2)ccc1C [Compound 18]
Test B disease control rating [1]: 41% | Test D disease control rating (Phakopsora pachyrhizi): 65%

COC(=O)NCc1cc(-c2ccn(-c3c(F)cc(F)cc3F)n2)ccc1C [Compound 16]
pest or weed control at 10 ppm ([1]; Puccinia recondita, 192 h): 99% | pest or weed control at 10 ppm (Phakopsora pachyrhizi; Phakopsora pachyrhizi, 216 h): 100%

C=C(C)c1cc(Br)c(-n2ccc(-c3ccc(C)c(CNC(=O)OC)c3)n2)c(Br)c1 [Compound 137]
Test B disease control rating [1]: 0% | Test D disease control rating (Phakopsora pachyrhizi): 77%

COC(=O)NCc1cc(-c2ccn(-c3c(F)cc(Br)cc3F)n2)ccc1C [Compound 7, methyl N-[[5-[1-(4-bromo-2,6-difluorophenyl)-1H-pyrazol-3-yl]-2-methylphenyl]methyl]carbamate]
pest or weed control at 10 ppm ([1]; Puccinia recondita, 192 h): 100% | pest or weed control at 10 ppm (Phakopsora pachyrhizi; Phakopsora pachyrhizi, 216 h): 100%
